This passage reports IC50 results from US20080293712A1, “Benzo[C][2,7]Naphtyridine Derivatives, Methods of Making Thereof and Methods of Use Thereof” (WYETH, priority 2007, published 2008).

One may read the IC50 as the midpoint of a concentration-inhibition curve.

One assay has as its target T1, PDK-1 (Homo sapiens, UniProt O15530).
T1 sequence (O15530 1-556): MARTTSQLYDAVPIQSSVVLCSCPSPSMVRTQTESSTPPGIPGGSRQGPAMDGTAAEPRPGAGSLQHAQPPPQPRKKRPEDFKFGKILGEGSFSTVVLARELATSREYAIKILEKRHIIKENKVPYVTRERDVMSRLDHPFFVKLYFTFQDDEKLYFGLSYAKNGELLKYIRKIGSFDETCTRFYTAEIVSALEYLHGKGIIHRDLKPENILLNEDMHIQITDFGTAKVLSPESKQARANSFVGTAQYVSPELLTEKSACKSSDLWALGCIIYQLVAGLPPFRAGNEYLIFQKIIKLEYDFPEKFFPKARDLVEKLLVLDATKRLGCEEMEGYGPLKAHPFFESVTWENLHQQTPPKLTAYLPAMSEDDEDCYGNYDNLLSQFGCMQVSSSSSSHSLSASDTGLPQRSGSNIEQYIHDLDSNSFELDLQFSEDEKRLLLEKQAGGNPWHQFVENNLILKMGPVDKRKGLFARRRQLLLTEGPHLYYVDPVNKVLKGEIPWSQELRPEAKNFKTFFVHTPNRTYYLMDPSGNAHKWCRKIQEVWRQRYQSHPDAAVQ
Put plainly: PDK-1 kinase inhibition ELISA assay (phosphorylation of His6-tagged SGK1 S422D by PDK-1). Format: biochemical.
Details: not given
(In general: ELISA stands for enzyme-linked immunosorbent assay.)
For `COc1ccccc1Nc1cncc(-c2cc3c(cnc4cc(OC)c(OC)cc43)c(N)n2)c1` [Ib-181, 8,9-dimethoxy-2-{5-[(2-methoxyphenyl)amino]pyridin-3-yl}benzo[c][2,7]naphthyridin-4-amine], half-maximal inhibition (IC50) required 73.7 nM. Compound `COc1cc2ncc3c(N)nc(-c4cncc(Nc5ccccc5CO)c4)cc3c2cc1OC` [Ib-196, (2-{[5-(4-amino-8,9-dimethoxybenzo[c][2,7]naphthyridin-2-yl)pyridin-3-yl]amino}phenyl)methanol] had an IC50 of 47 nM. The same measure, in the same setting: under `COc1cc2ncc3c(N)nc(-c4cncc(Nc5ccccc5CCO)c4)cc3c2cc1OC` [Ib-197, 2-(2-{[5-(4-amino-8,9-dimethoxybenzo[c][2,7]naphthyridin-2-yl)pyridin-3-yl]amino}phenyl)ethanol] stands 24 nM. The same measure, in the same setting: then `COc1cc2ncc3c(N)nc(-c4cncc(Nc5ccccc5F)c4)cc3c2cc1OC` [Ib-205, 2-{5-[(2-fluorophenyl)amino]pyridin-3-yl}-8,9-dimethoxybenzo[c][2,7]naphthyridin-4-amine], with 183 nM.

Staying with this assay, now noted: PDK-1 ELISA, Table 11; read-out: Average IC50.
On to `COc1cc2ncc3c(N)nc(-c4cncc(Nc5ccc(C#N)cc5)c4)cc3c2cc1OC` [Ib-180, 4-{[5-(4-amino-8,9-dimethoxybenzo[c][2,7]naphthyridin-2-yl)pyridin-3-yl]amino}benzonitrile], for which the IC50 is 600 nM.

`COc1cc2ncc3c(N)nc(-c4cncc(Nc5ccccc5N)c4)cc3c2cc1OC` [Ib-182, N-[5-(4-amino-8,9-dimethoxybenzo[c][2,7]naphthyridin-2-yl)pyridin-3-yl]benzene-1,2-diamine]: the IC50 amounted to 50.7 nM. Same read-out and setting: under `COc1cc2ncc3c(N)nc(-c4cncc(Nc5ccccc5Nc5ccccc5)c4)cc3c2cc1OC` [Ib-183, N-[5-(4-amino-8,9-dimethoxybenzo[c][2,7]naphthyridin-2-yl)pyridin-3-yl]-N′-phenylbenzene-1,2-diamine] stands 505 nM. The same measure, in the same setting: then `COc1cc2ncc3c(N)nc(-c4cncc(Nc5ccccc5N5CCOCC5)c4)cc3c2cc1OC` [Ib-184b, 8,9-dimethoxy-2-{5-[(2-morpholin-4-ylphenyl)amino]pyridin-3-yl}benzo[c][2,7]naphthyridin-4-amine], with 74 nM; and `COc1cc2ncc3c(N)nc(-c4cncc(Nc5ccccc5NC(C)=O)c4)cc3c2cc1OC` [Ib-185, N-(2-{[5-(4-amino-8,9-dimethoxybenzo[c][2,7]naphthyridin-2-yl)pyridin-3-yl]amino}phenyl)acetamide], with 37 nM. Same read-out and setting: then `COc1cc2ncc3c(N)nc(-c4cncc(Nc5ccccc5C(N)=O)c4)cc3c2cc1OC` [Ib-186, 2-{[5-(4-amino-8,9-dimethoxybenzo[c][2,7]naphthyridin-2-yl)pyridin-3-yl]amino}benzamide], with 164 nM. In the case of `CNC(=O)c1ccccc1Nc1cncc(-c2cc3c(cnc4cc(OC)c(OC)cc43)c(N)n2)c1` [Ib-187, 2-{[5-(4-amino-8,9-dimethoxybenzo[c][2,7]naphthyridin-2-yl)pyridin-3-yl]amino}-N-methylbenzamide], the IC50 worked out at 110 nM. On the same count and under the same terms, then `COc1cc2ncc3c(N)nc(-c4cncc(Nc5cccc(C(N)=O)c5)c4)cc3c2cc1OC` [Ib-188, 3-{[5-(4-amino-8,9-dimethoxybenzo[c][2,7]naphthyridin-2-yl)pyridin-3-yl]amino}benzamide], with 39 nM. As to `COc1cc2ncc3c(N)nc(-c4cncc(Nc5cccc(CN)c5)c4)cc3c2cc1OC` [Ib-189, 2-(5-{[3-(aminomethyl)phenyl]amino}pyridin-3-yl)-8,9-dimethoxybenzo[c][2,7]naphthyridin-4-amine], the IC50 came to 27 nM. The same measure, in the same setting: under `COc1cc2ncc3c(N)nc(-c4cncc(Nc5c(F)c(F)c(C(N)=O)c(F)c5F)c4)cc3c2cc1OC` [Ib-190, 4-{[5-(4-amino-8,9-dimethoxybenzo[c][2,7]naphthyridin-2-yl)pyridin-3-yl]amino}-2,3,5,6-tetrafluorobenzamide] stands 197 nM; under `CCN(CC)CCNC(=O)c1ccc(Nc2cncc(-c3cc4c(cnc5cc(OC)c(OC)cc54)c(N)n3)c2)cc1` [Ib-191, 4-{[5-(4-amino-8,9-dimethoxybenzo[c][2,7]naphthyridin-2-yl)pyridin-3-yl]amino}-N-[2-(diethylamino)ethyl]benzamide], 81 nM; under `COc1cc2ncc3c(N)nc(-c4cncc(Nc5ccc(CN)cc5)c4)cc3c2cc1OC` [Ib-192, 2-(5-{[4-(aminomethyl)phenyl]amino}pyridin-3-yl)-8,9-dimethoxybenzo[c][2,7]naphthyridin-4-amine], 81 nM. The same measure, in the same setting: then `COc1cc2ncc3c(N)nc(-c4cncc(Nc5ccc(C(=O)Nc6ccccc6)cc5)c4)cc3c2cc1OC` [Ib-193, 4-{[5-(4-amino-8,9-dimethoxybenzo[c][2,7]naphthyridin-2-yl)pyridin-3-yl]amino}-N-phenylbenzamide], with 506 nM; and `COc1cc2ncc3c(N)nc(-c4cncc(Nc5ccc(CO)cc5)c4)cc3c2cc1OC` [Ib-194, (4-{[5-(4-amino-8,9-dimethoxybenzo[c][2,7]naphthyridin-2-yl)pyridin-3-yl]amino}phenyl)methanol], with 142 nM. Turning to `COc1cc2ncc3c(N)nc(-c4cncc(Nc5cccc(CO)c5)c4)cc3c2cc1OC` [Ib-195, (3-{[5-(4-amino-8,9-dimethoxybenzo[c][2,7]naphthyridin-2-yl)pyridin-3-yl]amino}phenyl)methanol], the IC50 was 67 nM. Same read-out and setting: under `COc1cc2ncc3c(N)nc(-c4cncc(Nc5ccc(CCO)cc5)c4)cc3c2cc1OC` [Ib-198, 2-(4-{[5-(4-amino-8,9-dimethoxybenzo[c][2,7]naphthyridin-2-yl)pyridin-3-yl]amino}phenyl)ethanol] stands 91 nM. The same measure, in the same setting: under `COc1cc2ncc3c(N)nc(-c4cncc(Nc5ccccn5)c4)cc3c2cc1OC` [Ib-199, 8,9-dimethoxy-2-[5-(pyridin-2-ylamino)pyridin-3-yl]benzo[c][2,7]naphthyridin-4-Amine] stands 476 nM; under `COc1cc2ncc3c(N)nc(-c4cncc(Nc5cccnc5)c4)cc3c2cc1OC` [Ib-200, 8,9-dimethoxy-2-[5-(pyridin-3-ylamino)pyridin-3-yl]benzo[c][2,7]naphthyridin-4-Amine], 158 nM; under `COc1cc2ncc3c(N)nc(-c4cncc(Nc5ccncc5)c4)cc3c2cc1OC` [Ib-201, 8,9-dimethoxy-2-[5-(pyridin-4-ylamino)pyridin-3-yl]benzo[c][2,7]naphthyridin-4-Amine], 477 nM. On the same count and under the same terms, then `COc1cc2ncc3c(N)nc(-c4cncc(Nc5ccccc5OCc5ccccc5)c4)cc3c2cc1OC` [Ib-202, 2-(5-{[2-(benzyloxy)phenyl]amino}pyridin-3-yl)-8,9-dimethoxybenzo[c][2,7]naphthyridin-4-amine], with 1000 nM; and `COc1cc2ncc3c(N)nc(-c4cncc(Nc5ccccc5)c4)cc3c2cc1OC` [Ib-203, 2-(5-anilinopyridin-3-yl)-8,9-dimethoxybenzo[c][2,7]naphthyridin-4-amine], with 283 nM. In the case of `COc1cc2ncc3c(N)nc(-c4cncc(Nc5ccccc5-c5ccccc5)c4)cc3c2cc1OC` [Ib-204, 2-[5-(biphenyl-2-ylamino)pyridin-3-yl]-8,9-dimethoxybenzo[c][2,7]naphthyridin-4-Amine], the half-maximal inhibitory concentration (IC50) came out at 51 nM.
